# Measurements taken from patent publication US20250136612A1, “4',5'-DIHYDROSPIRO[PIPERIDINE-4,7'-THIENO[2,3-C]PYRAN] DERIVATIVES AS INHIBITORS OF APOL1 AND METHODS OF USING SAME” (VERTEX PHARMACEUTICALS INCORPORATED, priority 2022, published 2025).
# pIC50: −log10 of the molar value.
# Target: T1, APOL1 (Homo sapiens, UniProt O14791)
# T1 sequence (O14791 1-398 S342G/I384M): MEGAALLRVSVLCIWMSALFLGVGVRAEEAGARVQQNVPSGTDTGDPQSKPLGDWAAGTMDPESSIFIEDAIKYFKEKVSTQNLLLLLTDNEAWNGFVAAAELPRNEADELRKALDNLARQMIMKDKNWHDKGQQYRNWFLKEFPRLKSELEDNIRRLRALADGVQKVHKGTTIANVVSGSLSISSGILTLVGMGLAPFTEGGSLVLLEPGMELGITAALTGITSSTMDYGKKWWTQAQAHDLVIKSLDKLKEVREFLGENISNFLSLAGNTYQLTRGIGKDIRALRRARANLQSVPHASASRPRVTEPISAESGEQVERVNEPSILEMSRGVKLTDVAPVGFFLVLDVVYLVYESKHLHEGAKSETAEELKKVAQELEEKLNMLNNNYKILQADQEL
# Test: MultiTox-Fluor Multiplex Cytotoxicity Assay in tet-inducible APOL1 T-REx-HEK293 cells
# Assay type: cell-based
# Settings: 50 ng/mL tet, 24 hours, ratio of dead to live cells, read-out: IP50 (i.e., IC50 for cell proliferation)
# Description: The MultiTox-Fluor Multiplex Cytotoxicity Assay is a single-reagent-addition, homogeneous, fluorescence assay that measures the number of live and dead cells simultaneously in culture wells. The assay measures cell viability and cytotoxicity by detecting two distinct protease activities. The live-cell protease activity is restricted to intact viable cells and is measured using a fluorogenic, cell-permeant peptide glycyl-phenylalanylamino fluorocoumarin (GF-AFC) substrate. The substrate enters intact cells, where it is cleaved to generate a fluorescent signal proportional to the number of living cells. […] A second, cell-impermeant, fluorogenic peptide substrate (bis-AAF-R110 Substrate) is used to measure dead-cell protease that has been released from cells that have lost membrane integrity. A ratio of dead to live cells is used to normalize data.
# Briefly, the tet-inducible transgenic APOL1 T-REx-HEK293 cell lines were incubated with 50 ng/mL tet to induce APOL1 in the presence of 3-(2-(4-fluorophenyl)-1H-indol-3-yl)-N-((3S,4R)-4-hydroxy-2-oxopyrrolidin-3-yl)propenamide at 10.03, 3.24, 1.13, 0.356, 0.129, 0.042, 0.129, 0.0045, 0.0015, 0.0005 μM in duplicate for 24 hours in a humidified 37° C. incubator. The MultiTox reagent was added to each well and placed back in the incubator for an additional 30 minutes. The plate was read on the EnVision plate reader. A ratio of dead to live cells was used to normalize, and data was imported, analyzed, and fit using Genedata Screener (Basel, Switzerland) software. Data was normalized using percent of control, no tet (100% viability), and 50 ng/mL tet treated (0% viability),and fit using Smart Fit. The reagents, methods, and complete protocol for the MultiTox assay are described below.
# Human embryonic kidney (HEK293) cell lines containing a tet-inducible expression system (T-REx™; Invitrogen, Carlsbad, CA) and Adeno-associated virus site 1 pAAVS1-Puro-APOL1 G0 or pAAVS1-Puro-APOL1 G1 or pAAVS1-Puro-APOL1 G2 Clones G0 DC2.13, G1 DC3.25, and G2 DC4.44 were grown in a T-225 flask at ˜90% confluency in cell growth media (DMEM, 10% Tet-free FBS, 2 mM L-glutamine, 100 Units/mL penicillin-streptomycin, 5 μg/mL blasticidin S HCl, 1 μg/mL puromycin dihydrochloride). Cells were washed with DPBS and then trypsinized to dissociate from the flask. Media was used to quench the trypsin, cells were then pelleted at 200 g and resuspended in fresh cell assay media (DMEM, 2% Tet-free FBS, 2 mM L-glutamine, 100 Units/mL penicillin-streptomycin). Cells were counted and diluted to 1.17×10^6 cells/mL. 20 μL of cells (23,400/well) were dispensed in every well of a 384-well Poly-D-Lysine coated plate using the Multidrop dispenser. The plates were then incubated at room temperature for one hour.
# Tetracycline is needed to induce APOL1 expression. 1 mg/mL tet stock in water was diluted to 250 ng/mL (5×) in cell assay media. 60 μL of cell assay media (no tet control) was dispensed in columns 1 and 24, and 60 μL of 5×tet in 384-PP-round bottom plate was dispensed in columns 2 to 23 with the Multidrop dispenser.
# Assay ready plates from the Global Compound Archive were ordered using template 384_APOL1Cell_DR10n2_50 uM_v3. Compounds were dispensed at 200 nL in DMSO. The final top concentration was 10 μM with a 10 point 3-fold dilution in duplicate in the MultiTox assay.
# 20 μL was transferred from the 5×tet plate to the ARP and mixed, then 5 μL of 5×tet and the compounds were transferred to the cell plate and mixed using the Bravo. The cell plate was placed in the humidified 37° C. 5% CO2 incubator for 24 hours.
# The MultiTox-Fluor Multiplex Cytotoxicity Assay was performed in accordance with the manufacturer's protocol. After cells were incubated with tet and compound for 24 hours, 25 μL of 1×MultiTox reagent was added to each well using the Multidrop dispenser; the plates were placed on a plate shaker (600 rpm) for 2 minutes, then centrifuged briefly and placed back in the 37° C. incubator for 30 minutes. […]
row,SMILES,pIC50
1,Cn1cc(C2CC3(CCN2)OCCc2sc(Cl)cc23)nn1 (stereo not shown) [Compound 11],6.00 to 6.30
2,Clc1cc2c(s1)C1(CCNC(C3CC3)C1)OCC2 (stereo not shown) [Compound 19],6.00 to 6.30
3,"CC(O)c1c(C(F)(F)F)sc2c1CCOC21CCN[C@H](c2cn(C)nn2)C1 (single isomer, unassigned) [Compound 53]",> 7.00
4,O=C1NCc2cc(-n3cc([C@@H]4C[C@]5(CCN4)OCCc4cc(Cl)sc45)nn3)ccc21 [Compound 61],6.30 to 7.00
5,Cn1cc(C2CC3(CCN2)OCCc2cc(CC(F)F)sc23)nn1 (stereo not shown) [Compound 49],> 7.00
6,"Cn1cc([C@@H]2C[C@]3(CCN2)OCCc2cc(Cl)sc23)nn1 (single isomer, unassigned) [Compound 2]",6.30 to 7.00
7,Cn1cc([C@@H]2C[C@]3(CCN2)OCCc2cc(Br)sc23)nn1 [Compound 22],> 7.00
8,CNC(=O)c1cc(-n2cc([C@@H]3C[C@]4(CCN3)OCCc3cc(Cl)sc34)nn2)ccc1OC [Compound 58],6.30 to 7.00
9,"NC(=O)c1cccc(-n2cc([C@@H]3C[C@]4(CCN3)OCCc3cc(Cl)sc34)nn2)c1 [Compound 54, 3-(4-((2S,4S)-2′-chloro-4′,5′-dihydrospiro[piperidine-4,7′-thieno[2,3-c]pyran]-2-yl)-1H-1,2,3-triazol-1-yl)benzamide]",> 7.00
10,"Cn1cc([C@@H]2CC3(CCN2)OCCc2c3sc(C(F)(F)F)c2CO)nn1 (stereo partly drawn) [Compound 51, ((2S)-2-(1-methyl-1H-1,2,3-triazol-4-yl)-2′-(trifluoromethyl)-4′,5′-dihydrospiro[piperidine-4,7′-thieno[2,3-c]pyran]-3′-yl)methanol]",> 7.00
11,"Cc1cc([C@@H]2C[C@]3(CCN2)OCC(O)c2cc(Cl)sc23)on1 (stereo partly drawn) [Compound 34, (2S,4S)-2′-chloro-2-(3-methylisoxazol-5-yl)-4′,5′-dihydrospiro[piperidine-4,7′-thieno[2,3-c]pyran]-4′-ol]",6.30 to 7.00
12,O=C1NCc2ccc(-n3cc([C@@H]4C[C@]5(CCN4)OCCc4cc(Cl)sc45)nn3)cc21 [Compound 56],> 7.00
13,CCc1cc2c(s1)CCOC21CCNC(c2cnc(C)nc2)C1 (stereo not shown) [Compound 18],6.00 to 6.30
14,Fc1ccc(-n2cc([C@@H]3C[C@]4(CCN3)OCCc3cc(Cl)sc34)nn2)cc1 [Compound 72],6.00 to 6.30
15,"Cn1cc([C@@H]2C[C@]3(CCN2)OCC(O)(C(F)F)c2cc(Cl)sc23)nn1 (single isomer, unassigned) [Compound 39]",6.00 to 6.30
16,COc1ccccc1-n1cc([C@@H]2C[C@]3(CCN2)OCCc2cc(Cl)sc23)nn1 [Compound 66],6.30 to 7.00
17,"[2H]C1([2H])CO[C@]2(CCN[C@H](c3cn(C)nn3)C2)c2sc(Cl)cc21 [Compound 43, (2'S, 7S)-2-chloro-4,4-dideuterio-2′-(1-methyltriazol-4-yl)spiro[5H-thieno[2,3-c]pyran-7,4′-piperidine]]",6.30 to 7.00
18,"Cc1cc([C@@H]2C[C@]3(CCN2)OCCc2cc(Cl)sc23)no1 (single isomer, unassigned) [Compound 23]",6.30 to 7.00
19,Cn1cnc(C2CC3(CCN2)OCCc2cc(Cl)sc23)c1 (stereo not shown) [Compound 12],6.00 to 6.30
20,COCCn1cc([C@@H]2C[C@]3(CCN2)OCCc2cc(Cl)sc23)nn1 [Compound 76],6.00 to 6.30
21,"Cn1cc([C@@H]2C[C@]3(CCN2)OCC(O)c2cc(Cl)sc23)nn1 (stereo partly drawn) [Compound 35, (2S,4S)-2′-chloro-2-(1-methyl-1H-1,2,3-triazol-4-yl)-4′,5′-dihydrospiro[piperidine-4,7′-thieno[2,3-c]pyran]-4′-ol]",6.30 to 7.00
22,"Cn1cc([C@@H]2C[C@]3(CCN2)OCC(=O)c2cc(Cl)sc23)nn1 [Compound 41, (2S,4S)-2′-chloro-2-(1-methyltriazol-4-yl)spiro[piperidine-4,7′-thieno[2,3-c]pyran]-4′-one]",6.30 to 7.00

row,SMILES,pIC50
1,"Cc1cc([C@@H]2C[C@]3(CCN2)OCCc2cc(Cl)sc23)on1 (single isomer, unassigned) [Compound 25]",6.30 to 7.00
2,"CCc1cc2c(s1)CCOC21CCNC(C2CC2)C1 (single isomer, unassigned) [Compound 29, 2′-cyclopropyl-2-ethyl-spiro[6,7-dihydrothieno[3,2-c]pyran-4,4′-piperidine]]",6.00 to 6.30
3,"Cn1cc(C2CC3(CCN2)OCCc2cc(C4CC(F)(F)C4)sc23)nn1 (stereo not shown) [Compound 46, 2-(3,3-difluorocyclobutyl)-2′-(1-methyltriazol-4-yl)spiro[4,5-dihydrothieno[2,3-c]pyran-7,4′-piperidine]]",6.30 to 7.00
4,"CCc1cc2c(s1)CCOC21CCNC(C2CC2)C1 (stereo not shown) [Compound 3, 2′-cyclopropyl-2-ethyl-spiro[6,7-dihydrothieno[3,2-c]pyran-4,4′-piperidine]]",6.30 to 7.00
5,Clc1cc2c(s1)[C@@]1(CCN[C@H](c3cn(-c4cccnc4)nn3)C1)OCC2 [Compound 63],6.30 to 7.00
6,CCc1cc2c(s1)C1(CCNC(c3cc(C)no3)C1)OCC2 (stereo not shown) [Compound 6],> 7.00
7,CCc1cc2c(s1)CCOC21CCNC(c2cn(C)nn2)C1 (stereo not shown) [Compound 10],6.30 to 7.00
8,Fc1cccc(-n2cc([C@@H]3C[C@]4(CCN3)OCCc3cc(Cl)sc34)nn2)c1 [Compound 70],6.30 to 7.00
9,Clc1cc2c(s1)[C@@]1(CCN[C@H](c3cn(-c4ccncc4)nn3)C1)OCC2 [Compound 64],6.30 to 7.00
10,Clc1cc2c(s1)[C@@]1(CCN[C@H](c3cn[nH]c3)C1)OCC2 [Compound 26],> 7.00
11,"Clc1cc2c(s1)[C@@]1(CCN[C@H](c3cn(-c4ccccc4)nn3)C1)OCC2 [Compound 55, (2S,4S)-2′-chloro-2-(1-phenyl-1H-1,2,3-triazol-4-yl)-4′,5′-dihydrospiro[piperidine-4,7′-thieno[2,3-c]pyran]]",6.30 to 7.00
12,Cn1cc([C@@H]2CC3(CCN2)OCCc2cc(CC(F)(F)F)sc23)nn1 (stereo partly shown) [Compound 48],6.30 to 7.00
13,Clc1cc2c(s1)[C@@]1(CCN[C@H](c3c[nH]nn3)C1)OCC2 [Compound 77],6.00 to 6.30
14,CCc1cc2c(s1)C(C)COC21CCNC(c2cn(C)nn2)C1 (stereo not shown) [Compound 9],6.30 to 7.00
15,OCCn1cc(C2CC3(CCN2)OCCc2cc(Cl)sc23)cn1 (stereo not shown) [Compound 14],6.00 to 6.30
16,CCc1cc2c(s1)C1(CCNC(c3cn(C)nn3)C1)OCC2 (stereo not shown) [Compound 4],6.30 to 7.00
17,NC(=O)c1cc(-n2cc([C@@H]3C[C@]4(CCN3)OCCc3cc(Cl)sc34)nn2)ccc1F [Compound 57],> 7.00
18,Cn1cc(C2CC3(CCN2)OCCc2cc(C(F)(F)F)sc23)nn1 (stereo not shown) [Compound 5],> 7.00
19,"Cn1cc([C@@H]2C[C@]3(CCN2)OCC(C)(O)c2cc(Cl)sc23)nn1 (single isomer, unassigned) [Compound 37]",6.00 to 6.30
20,COc1ccc(-n2cc([C@@H]3C[C@]4(CCN3)OCCc3cc(Cl)sc34)nn2)cc1 [Compound 67],6.30 to 7.00
21,"CC(O)c1c(C(F)(F)F)sc2c1CCOC21CCN[C@H](c2cn(C)nn2)C1 (single isomer, unassigned) [Compound 52]",6.30 to 7.00
